The text below walks through data of US12618835B2, “Multiplex microelectrode array for detection of proteases as biomarkers” (Kansas State University Research Foundation, priority 2021, dated 2026).

The test system of the test is cathepsin B in human serum. The experiment in a line: Electrochemical (ACV) proteolysis of peptide-Fc on Au MEA by diluted human serum, with and without spiked rhCB. Type of test: biochemical. How it is done: Electrochemical Experiments. Electrochemical experiments were performed on a specially designed electrochemical cell mounted on a large copper block for temperature control by circulating thermostatic silicone liquid through the internal channels. The thermal circulator (Julabo, Allentown, PA) was set to achieve a temperature of 38.6° C. Two buffer solutions, 0.5×PB (pH=7.4) and 25 mM MES (pH=5.0), were used. In some experiments, the rhCB was activated by incubation in 25 mM MES buffer (pH=5.0) containing 5 mM DTT for 15 min. About 10 uL activated cathepsin B solution was added to the electrochemical cell containing 815 uL buffer solution (i.e., 0.5×PB with pH=7.4) as the electrolyte. Fc signal on the Au surface was detected by alternating current voltammetry (ACV) with an AC frequency of 300 Hz and a voltage amplitude of 100 mV on a DC ramp from −0.45 V to 0.20 V vs. MSE. Electrochemical measurements were performed using an IVIUM n-Stat potentiostat (Eindhoven, The Netherlands), which allows measurement of up to ten independent working electrodes simultaneously versus a common MSE reference electrode and a common Pt coil counter electrode.
Electrochemical Detection of Cathepsin B Activity in Human Serum. To assess the activity of cathepsin B in HS, we compared the kinetic proteolysis curves of 5% HS in 0.5×PB with and without activation by the electrochemical method. The 5% HS concentration is slightly higher than the 2.5% used in ELISA measurements to ensure that a clear exponential decay can be observed in electrochemical experiments. To minimize errors, three Au MEA chips were prepared side-by-side for three sets of experiments, i.e., (i) non-activated 5% HS in 0.5×PB, (ii) activated 5% HS in 0.5×PB, and (iii) the blank 0.5×PB. […] Based on equation (2), the concentration of the active form of cathepsin B in non-activated and activated sample (equivalent to 100% HS) can be calculated by: […]
Electrochemical Assessment of Effective Cathepsin B Activity Spiked in Human Serum. […] The data were recorded over 8 channels of the peptide-Fc modified Au MEA simultaneously. […]

Where no end group is shown, it is not given here. [ ]: non-standard residue; d: D form. The star is where a group is joined. aminomethylferrocene = [Fe+2].c1cc[c-](CN*)c1.c1cc[cH-]c1; Ava = NCCCCC(=O)O

On to “H2N-(CH2)4-CO-Pro-Leu-Ala-Phe-Val-Ala-NH-CH2-Fc ([Ava]PLAFVA-aminomethylferrocene) [Peptide H-15]”, for which the 1/τ entry was “(33.2±3.0)×10^−4 s^−1” (activated 5% HS in 0.5×PB (DTT/MES), 8 channels); “(12.99±1.66)×10^−4 s^−1” (non-activated 5% HS in 0.5×PB spiked with 0.40 nM naturally active cathepsin B (1.0 nM non-activated rhCB)); “(68.4±7.53)×10^−4 s^−1” (non-activated 5% HS in 0.5×PB spiked with 1.0 nM activated cathepsin B).
